The test system of one data set is pig liver esterase. Briefly: Metabolism studies using pig liver esterase. It is filed as in vitro ADME. To be noted: 37° C.
The next data set addresses T1, Gal-4 hPPARβ/δ (Homo sapiens, UniProt Q03181).
T1 construct: Plasmids pGal4-hPPARα, pGal4-hPPARγ, pGal4-hPPARδ and pG5-TK-pGL3 were constructed as previously described by Staels, Bart, et al., Nature 1998 Jun; 25
T1 sequence (Q03181 171-441 limits assumed): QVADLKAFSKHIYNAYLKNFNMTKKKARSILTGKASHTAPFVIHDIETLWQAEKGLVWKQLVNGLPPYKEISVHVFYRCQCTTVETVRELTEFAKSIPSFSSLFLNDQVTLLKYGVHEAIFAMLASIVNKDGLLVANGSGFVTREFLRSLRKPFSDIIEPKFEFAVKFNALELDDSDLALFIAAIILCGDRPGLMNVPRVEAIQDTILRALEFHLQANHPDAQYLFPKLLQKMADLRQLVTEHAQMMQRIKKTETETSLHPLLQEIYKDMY
Briefly: Gal4-hPPARδ transient transfection reporter assay in Cos cells. It counts as cell-based. To be noted: luciferase reporter, 24 hours with compound, scale 1-5, read-out: Gal-4 hPPAR β/δ EC50 (scaled number). Put shortly: (§1)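 Cos cells transiently co-transfected with Gal4-hPPAR expression plasmid, pG5-TK-pGL3 luciferase reporter and β-galactosidase control, then treated 24 h with increasing compound concentrations in DMEM containing 0.2% FCS. Luciferase normalised to β-galactosidase; EC50 from curve fit, at least three experiments.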
For orientation: Reporter assays use an easily measured gene product as a stand-in for the process of interest.

For the next data set, the target named is T2, Gal-4 hPPARα (Homo sapiens, UniProt Q07869).
T2 construct: Plasmids pGal4-hPPARα, pGal4-hPPARγ, pGal4-hPPARδ and pG5-TK-pGL3 were constructed as previously described by Staels, Bart, et al., Nature 1998 Jun; 25
T2 sequence (Q07869 200-468 limits assumed): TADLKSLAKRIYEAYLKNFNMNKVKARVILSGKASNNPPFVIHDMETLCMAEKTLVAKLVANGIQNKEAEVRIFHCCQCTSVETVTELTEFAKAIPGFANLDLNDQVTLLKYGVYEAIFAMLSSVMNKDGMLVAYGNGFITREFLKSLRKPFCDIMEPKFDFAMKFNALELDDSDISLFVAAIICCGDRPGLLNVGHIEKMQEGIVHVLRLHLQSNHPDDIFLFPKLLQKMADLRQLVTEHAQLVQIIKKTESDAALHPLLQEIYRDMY
Briefly: Gal4-hPPARα transient transfection reporter assay in Cos cells. It counts as cell-based. The conditions noted are these: luciferase reporter, 24 hours with compound, scale 1-5, read-out: Gal-4 hPPAR α EC50 (scaled number). A digest of the protocol: as §1

Another data set addresses T3, Gal-4 hPPARγ (Homo sapiens, UniProt P37231).
T3 construct: Plasmids pGal4-hPPARα, pGal4-hPPARγ, pGal4-hPPARδ and pG5-TK-pGL3 were constructed as previously described by Staels, Bart, et al., Nature 1998 Jun; 25
T3 sequence (P37231 238-505 limits assumed): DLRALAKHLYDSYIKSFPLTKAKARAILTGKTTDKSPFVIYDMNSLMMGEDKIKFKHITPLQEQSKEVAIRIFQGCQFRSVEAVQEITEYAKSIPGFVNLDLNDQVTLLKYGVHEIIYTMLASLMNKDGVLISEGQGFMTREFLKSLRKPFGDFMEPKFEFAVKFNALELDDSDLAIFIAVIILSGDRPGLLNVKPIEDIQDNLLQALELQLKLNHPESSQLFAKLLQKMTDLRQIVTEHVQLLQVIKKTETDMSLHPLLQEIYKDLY
The experiment in a line: Gal4-hPPARγ transient transfection reporter assay in Cos cells. It is filed as cell-based. To be noted: luciferase reporter, 24 hours with compound, scale 1-5, read-out: Gal-4 hPPAR γ EC50 (scaled number). Put shortly:
as §1

The mark [1] stands for this setting: pig liver esterase in human plasma protein solution.
Where [2] appears, read: pig liver esterase in phosphate buffer pH 7.4, no plasma, read-out: Pig Liver Esterase (t1/2 min.) (−) Plasma.
[3] abbreviates: pig liver esterase in human plasma protein solution, read-out: Pig Liver Esterase (t1/2 min.) (+) Plasma.

Like-named read-outs stand apart in the source and are kept apart here.

For `CCCCCCCCn1c(COC(=O)c2ccc(OC(C)(C)C(=O)O)c(OC)c2)nn(Cc2ccc(C)cc2)c1=O` [Compound 186, 2-(2-methoxy-4-(((1-(4-methylbenzyl)-4-octyl-5-oxo-4,5-dihydro-1H-1,2,4-triazol-3-yl)methoxy)carbonyl)phenoxy)-2-methylpropanoic acid], in the data set with pig liver esterase (setting [1]), the “Pig Liver Esterase (t1/2 min.) (+) Plasma” value (from here on “Pig Liver Esterase”) is reported as “Stable”. In addition, the half-life at 4.9 µM with pig liver esterase (setting [2]) came out at 45 min. In addition, the EC50 was greater than 1000 nM on Gal-4 hPPARβ/δ, 1 to 50 nM on Gal-4 hPPARα and 51 to 200 nM on Gal-4 hPPARγ.

Consider `CCCCCCn1c(COC(=O)c2ccc(SC(C)(C)C(=O)O)cc2)nn(Cc2ccc(C(C)(C)C)cc2)c1=O` [Compound 187, 2-(4-(((1-(4-tert-butylbenzyl)-4-hexyl-5-oxo-4,5-dihydro-1H-1,2,4-triazol-3-yl)methoxy)carbonyl)phenylthio)-2-methylpropanoic acid], for which the half-life at 4.9 µM in the data set on pig liver esterase (setting [3]) was found to be 64 min; in the data set on pig liver esterase (setting [2]), 26 min. The figures for the EC50 at Gal-4 hPPARβ/δ, on Gal-4 hPPARα and on Gal-4 hPPARγ were greater than 1000 nM, 1 to 50 nM and 51 to 200 nM, respectively.

As for `CCCCCCn1c(COC(=O)c2ccc(OC(C)(C)C(=O)O)cc2)nn(Cc2ccc(C(C)(C)C)cc2)c1=O` [Compound 188, 2-(4-(((1-(4-tert-butylbenzyl)-4-hexyl-5-oxo-4,5-dihydro-1H-1,2,4-triazol-3-yl)methoxy)carbonyl)phenoxy)-2-methylpropanoic acid], in the data set with pig liver esterase (setting [1]), the “Pig Liver Esterase” value is “Stable”. Further, the half-life at 4.9 µM with pig liver esterase (setting [2]) was found to be 9 min. Also, the figures for the EC50 on Gal-4 hPPARβ/δ, on Gal-4 hPPARα and at Gal-4 hPPARγ were greater than 1000 nM, 1 to 50 nM and greater than 1000 nM, respectively.

As to `CCCCCCCn1c(COC(=O)c2ccc(SC(C)(C)C(=O)O)cc2)nn(Cc2ccc(C(C)(C)C)cc2)c1=O` [Compound 189, 2-(4-(((1-(4-tert-butylbenzyl)-4-heptyl-5-oxo-4,5-dihydro-1H-1,2,4-triazol-3-yl)methoxy)carbonyl)phenylthio)-2-methylpropanoic acid], the half-life at 4.9 µM in the data set with pig liver esterase (setting [3]) is 105 min; with pig liver esterase (setting [2]) it was less than 5 min. Besides, the results for the EC50 on Gal-4 hPPARβ/δ, on Gal-4 hPPARα and on Gal-4 hPPARγ were greater than 1000 nM, 1 to 50 nM and 1 to 50 nM, respectively.

On to `CCCCCCCn1c(COC(=O)c2ccc(OC(C)(C)C(=O)O)cc2)nn(Cc2ccc(C(C)(C)C)cc2)c1=O` [Compound 190, 2-(4-(((1-(4-tert-butylbenzyl)-4-heptyl-5-oxo-4,5-dihydro-1H-1,2,4-triazol-3-yl)methoxy)carbonyl)phenoxy)-2-methylpropanoic acid], for which the “Pig Liver Esterase” value with pig liver esterase (setting [1]) is “Stable”. Besides, the half-life at 4.9 µM in the data set with pig liver esterase (setting [2]) worked out at 8 min. Also, the EC50 at Gal-4 hPPARβ/δ was greater than 1000 nM; at Gal-4 hPPARα, 1 to 50 nM; at Gal-4 hPPARγ it was greater than 1000 nM.

As for `CCCCCCCn1c(COC(=O)c2ccc(SC(C)(C)C(=O)O)cc2)nn(Cc2ccc(C)cc2)c1=O` [Compound 191, 2-(4-(((4-heptyl-1-(4-methylbenzyl)-5-oxo-4,5-dihydro-1H-1,2,4-triazol-3-yl)methoxy)carbonyl)phenylthio)-2-methylpropanoic acid], the “Pig Liver Esterase” value in the data set with pig liver esterase (setting [1]) is recorded as “Stable”. For the same compound, the half-life at 4.9 µM in the data set with pig liver esterase (setting [2]) is less than 5 min. The EC50 at Gal-4 hPPARβ/δ is greater than 1000 nM; on Gal-4 hPPARα it was 1 to 50 nM; on Gal-4 hPPARγ, 51 to 200 nM.

With `CCCCCCCn1c(COC(=O)c2ccc(OC(C)(C)C(=O)O)cc2)nn(Cc2ccc(C)cc2)c1=O` [Compound 192, 2-(4-(((4-heptyl-1-(4-methylbenzyl)-5-oxo-4,5-dihydro-1H-1,2,4-triazol-3-yl)methoxy)carbonyl)phenoxy)-2-methylpropanoic acid], the “Pig Liver Esterase” value in the data set with pig liver esterase (setting [1]) is “Stable”. For the same compound, the half-life at 4.9 µM in the data set on pig liver esterase (setting [2]) turned out to be 27 min. Moreover, the EC50 was greater than 1000 nM at Gal-4 hPPARβ/δ, 1 to 50 nM at Gal-4 hPPARα and greater than 1000 nM at Gal-4 hPPARγ.
